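Results reflect a 48-hour exposure of cells in 96-well plates to compound at five concentrations. The concentration for 50% growth inhibition is given as GI50. TGI: total growth inhibition.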 *1 amine or outer side, *2 acyl side, *3 side chain or, on linkers, in order; H or OH if unused. Where a SMILES comes first, the peptide text is derived from it. Bridges are numbered along the chain shown (N, C = ends). Roman numbers before positions name the chains, in order. [ ]: non-standard residue; d: D form. Actinocin(9to1) = Cc1c2oc3c(C)ccc(C(=O)[*:1])c3nc-2c(C(=O)[*:2])c(N)c1=O; NMeV = CN[CH](C(=O)O)C(C)C; Sar = CNCC(=O)O Bounds are passed on as bounds.

GI50 and TGI data for seven compounds are collected here from PubChem BioAssay (NCI).

Common to all, as to test: growth of human tumour cells (NCI), 48 h
Test [1] relates to HT29 colon.
Test [2] has as its system MCF7 breast.
The subject of test [3] is IGROV1 ovarian.
Test [4] deals with 786-0 renal.
Test [5] has as its system SK-MEL-5 melanoma.
Test [6] deals with SN12C renal.
The test system of test [7] is A549 NSCLC.
For test [8], the system named is PC-3 prostate.
Test [9] relates to TK-10 renal.
Test [10] has as its system MALME-3M melanoma.

With `COc1cccc(OC(=O)c2ccc(C(F)(F)F)nc2Nc2c(C)cccc2Cl)c1`, the GI50 in test [1] is 26.4 µM; in test [2], 15800 nM; in [3], 15.1 µM; in test [4] it was 27.7 µM; in test [5], 33.3 µM; in test [6], 21.4 µM. The values for the GI50 in [7] and in test [8] were 22.8 µM and 20 µM, respectively. For the same compound, the TGI in test [1] was above 100 µM; in test [2] it was 81.2 µM; in test [3], 43.3 µM; in test [4] it was above 100 µM; in [5], above 100 µM; in [6], 64.3 µM. Moreover, the TGI in [7] was 58.6 µM; in [8], 47.1 µM.

`COc1cc(OC)cc(-c2nc3sccn3c2/C=N/N=C(N)N)c1`: the GI50 in test [1] was 8.14 µM; in test [2], 9410 nM; in test [3], 11.6 µM; in test [4], 7.71 µM; in test [9] it was 6.29 µM; in test [5] it was 8.34 µM. Further, the figures for the GI50 in [6], in test [7] and in test [8] were 7 µM, 10 µM and 9.23 µM, respectively. Further, the TGI amounted to 14.9 µM in test [1]; 20.1 µM in test [2]; 26.2 µM in test [3]; 14.4 µM in test [4]; 12.6 µM in test [9]; 15.2 µM in test [5]. The figures for the TGI in test [6], in test [7] and in test [8] were 13.6 µM, 19.8 µM and 16.2 µM, respectively.

For `O=C(O)/C=C/c1ccc[c]([Sb](=[O])([OH])[OH])c1`, the GI50 in test [10], in test [1], in test [3], in [4], in test [9] and in test [5] was above 100 µM throughout. For the same compound, the GI50 in test [6], in [7] and in test [8] was above 100 µM each time. The TGI in test [10] is above 100000 nM; in test [1] it was above 100 µM; in test [3] it was above 100 µM; in test [4] it was above 100 µM; in test [9], above 100 µM; in test [5] it was above 100 µM. In addition, the TGI in [6], in test [7] and in test [8] was above 100 µM throughout.

Regarding `Cc1c2oc3c(C)ccc(C(=O)OC(C)C4NC(=O)C(C(C)C)N(C)C(=O)CN(C)C(=O)C5CCCN5C(=O)C(C(C)C)NC4=O)c3nc-2c(C(=O)OC(C)C2NC(=O)C(C(C)C)N(C)C(=O)CN(C)C(=O)C3CCCN3C(=O)C(C(C)C)NC2=O)c(N)c1=O` (stereo not drawn) (I: cyclo([Sar][NMeV]TVP) / II: cyclo([Sar][NMeV]TVP); linker I:3-II:3 via Actinocin(9to1); configuration not given here), the GI50 in [10] is below 0.01 µM; in [1], below 0.01 µM; in [2], below 10 nM; in [3] it was below 0.01 µM; in [4] it was below 0.01 µM; in test [9], below 0.0127 µM. Further, the GI50 in test [5], in test [6] and in test [8] was below 0.01 µM in each case. Also, the TGI is 28.2 nM in test [10]; above 100 µM in test [2]; 5.9 µM in test [3]; above 100 µM in test [4]; 0.894 µM in [9]; 0.0169 µM in test [5]. The TGI in test [6] is above 100 µM; in test [8], 19.7 µM.

As to `CCN1C(=O)N(CC)C2C1NN=c1s/c(=C\c3cccs3)c(=O)n12` (stereo not drawn), the GI50 in [1] was 0.0557 µM; in [2], 49.6 nM; in test [3], 0.217 µM; in [4], 1.03 µM; in test [9], above 100 µM; in [5], 0.218 µM. Moreover, the GI50 in test [6] is 0.555 µM; in test [7], 0.244 µM; in test [8], 0.12 µM. Besides, the TGI in test [1] was above 100 µM; in test [2], above 100 µM; in test [3], above 100 µM; in test [4] it was above 100 µM; in test [9], above 100 µM; in test [5] it was 4.26 µM. For the same compound, the TGI in test [6], in [7] and in test [8] was above 100 µM throughout.

With `Cc1ccc2[nH]c3c(c2c1)N=c1ccccc1=NO3`, the GI50 in [10] was 20 µM; in test [1] it was 76.1 µM; in test [3], 32.6 µM; in test [4], 35 µM; in [9] it was 38.2 µM; in [5] it was 40.9 µM. Further, the GI50 was 36.5 µM in [6], above 100 µM in test [7] and 57 µM in test [8]. For the same compound, the TGI is 54100 nM in test [10]; above 100 µM in test [1]; above 100 µM in test [3]; above 100 µM in [4]; above 100 µM in test [9]; above 100 µM in [5]. Also, the TGI in test [6], in test [7] and in test [8] was above 100 µM in each case.

Turning to `O=C1Nc2ccccc2/C1=C\c1cccc(/C=C2/C(=O)Nc3ccccc32)n1`, the GI50 is 0.3 µM in test [10]; 0.226 µM in test [1]; 226 nM in test [2]; 0.44 µM in test [3]; 1.08 µM in test [4]; 0.416 µM in test [9]. Further, the GI50 is 0.242 µM in [5], 0.357 µM in test [6] and 0.654 µM in [8]. Further, the TGI in test [10] is 1080 nM; in test [1], 0.529 µM; in test [2], 0.851 µM; in [3] it was 1.67 µM; in test [4], 2.49 µM; in [9] it was 1.41 µM. Also, the results for the TGI in [5], in test [6] and in test [8] were 0.722 µM, 1.36 µM and 3.31 µM, respectively.
